Columns and labels:
[1] = biological target: viral sialidase from whole influenza virus A1PR/8/34 (Influenza A virus, UniProt P03468); experiment: Biochemical evaluation of chromogenic substrate with viral sialidase; conditions: substrate ca. 0.7 mM, 30 minutes
Protocol: Biochemical evaluation for the chromogenic product of viral sialidase substrate compounds. Sialidase can be obtained from, for example, purified recombinant bacterial sialidase from Salmonella T., whole influenza virus, or culture medium containing secreted human sialidase from the 2CFSME cell line. The sialidase preparation is added to a buffer of sodium acetate (0.05 to 0.5 M; pH 5.0-6.0), and the substrate compound is provided at about 0.2-1.0 mM concentration. It should be noted that numerous other examples of buffer solution may be used, including organic acids such as citrate buffers, for example, as well as inorganic buffers, including potassium, sodium, calcium, and other such salts thereof. […] The color change is readily visible. The color change can be quantitated spectrophotometrically by measuring the light absorption of the reaction mixture. […]
E. Biochemical Evaluation of a Chromogenic Substrate Product with Bacterial Sialidase and with Viral Sialidase. […] The reaction progress was quantitated by measuring the light absorption of the reaction mixture. The light absorption was measured with a spectrophotometer at 517 nm with a 1 cm path cell. In the experiment conducted with bacterial sialidase, the absorbance was measured as 2.448. In the experiment conducted with viral sialidase, the absorbance was measured as 1.168. […]

[2] = biological target: purified recombinant bacterial sialidase from Salmonella T. (Salmonella typhimurium, UniProt P29768); experiment: Biochemical evaluation of chromogenic substrate with bacterial sialidase; conditions: substrate ca. 0.7 mM, 30 minutes
[3] = pH 6.0, 37° C., after addition of sodium hydroxide (pH>11.0)

Chain of viral sialidase from whole influenza virus A1PR/8/34 (P03468 whole entry, looked up): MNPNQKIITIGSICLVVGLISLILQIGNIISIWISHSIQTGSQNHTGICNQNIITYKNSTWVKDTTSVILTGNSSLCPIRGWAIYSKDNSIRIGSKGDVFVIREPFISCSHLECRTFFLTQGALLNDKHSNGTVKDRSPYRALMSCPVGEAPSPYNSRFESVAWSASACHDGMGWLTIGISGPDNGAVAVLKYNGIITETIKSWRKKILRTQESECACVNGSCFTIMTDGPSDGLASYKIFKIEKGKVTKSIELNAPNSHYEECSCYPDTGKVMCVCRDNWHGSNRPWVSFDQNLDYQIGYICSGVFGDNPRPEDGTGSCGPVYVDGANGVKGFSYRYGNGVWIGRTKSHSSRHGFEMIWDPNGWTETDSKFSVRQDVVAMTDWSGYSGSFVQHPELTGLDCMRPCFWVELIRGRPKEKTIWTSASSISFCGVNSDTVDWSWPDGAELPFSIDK
Chain of purified recombinant bacterial sialidase from Salmonella T. (P29768 whole entry): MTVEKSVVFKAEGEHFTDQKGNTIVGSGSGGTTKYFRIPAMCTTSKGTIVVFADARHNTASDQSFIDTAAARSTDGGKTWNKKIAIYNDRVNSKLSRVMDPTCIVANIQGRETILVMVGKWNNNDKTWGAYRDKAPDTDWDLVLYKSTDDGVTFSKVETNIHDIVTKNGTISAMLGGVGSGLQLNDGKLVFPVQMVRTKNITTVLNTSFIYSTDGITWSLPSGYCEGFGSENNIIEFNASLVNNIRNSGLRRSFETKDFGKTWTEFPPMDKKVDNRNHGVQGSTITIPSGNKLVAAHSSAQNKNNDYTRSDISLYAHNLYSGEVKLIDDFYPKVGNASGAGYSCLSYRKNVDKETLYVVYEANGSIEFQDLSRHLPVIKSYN

COC(=O)C1(Oc2cc(C)c(C3(c4cc(C(C)C)c(O)cc4C)OC(=O)c4ccccc43)cc2C(C)C)CC(OC)C(NC(C)=O)C([C@H](N)[C@H](O)CO)O1 (stereo partly shown) [Compound 9c]
absorbance (light absorption of the reaction mixture) ([1]; 517 nm, 1 cm path cell, potassium acetate 0.5 M pH 6.0, 37° C., then sodium hydroxide 1.0 M, reaction not allowed to proceed to completion): 1.168
visible color change [1, 3]: color change to blue was readily visible
absorbance (light absorption of the reaction mixture) ([2]; 517 nm, 1 cm path cell, potassium acetate 0.5 M pH 6.0, 37° C., then sodium hydroxide 1.0 M): 2.448
visible color change [2, 3]: color change to blue was readily visible

Reference: patent US6667161B1, “Chromogenic substrates of sialidase of bacterial, viral, protozoa, and vertebrate origin and methods of making and using the same” (Ibbex, Inc., priority 1997, dated 2003)
